Values of other authors, collected in publication PMC9324670, “Pd(II) Binding Strength of a Novel Ambidentate Dipeptide-Hydroxypyridinonate Ligand: A Solution Equilibrium Study” (Molecules, 2022).

Tests used:
[1] = pH-potentiometry
[2] = set-up: method as in doi:10.1016/S0020-1693(00)91874-7; details: fixed values used in the equilibrium models

| Compound | pKOH(3) [1] | logβ (stability constant of the complex in the Pd(II)–Cl^− system) [2] |
| --- | --- | --- |
| Cc1c(O)c(=O)ccn1C [H(L4), 3-hydroxy-1,2-dimethylpyridin-4(1H)-one] | 9.76 |  |
| [Cl][Pd-2]([Cl])([Cl])[Cl] [[PdCl4]^2−] |  | 11.56 |
| [Cl][Pd+] [[PdCl]^+] |  | 4.47 |

Second part, the compound after the results:

| pKOH(3) [1] | logβ (stability constant of the complex in the Pd(II)–Cl^− system) [2] | Compound |
| --- | --- | --- |
|  | 10.17 | [Cl][Pd-]([Cl])[Cl] [[PdCl3]^−] |
|  | 7.76 | [Cl][Pd][Cl] [[PdCl2]] |
